Laboratory results reported in US10828315B2 (Madrigal Pharmaceuticals, Inc., priority 2013, dated 2020).
Values joined by “and” are separate entries in the source; they are usually repeats but may differ in a detail not shown here. Equal entries are not always repeated. Where two headings read alike, the source gives them in different places.

Columns and labels:
HER2 [1] = assay: HER2 degradation assay with BT-474 cell line (Example 12, FACS); format: cell-based, human
Hsp90α = molecular target: T1, Hsp90α (Homo sapiens, UniProt P07900); assay: Hsp90α binding assay (fluorescence polarization, FITC-labeled geldanamycin; Example 11); details: read-out: EC50 (Hsp90 binding assay)
T1 construct: purchased BPS Bioscience 50294
Procedure: An Hsp90^α fluorescence assay kit from BPS Bioscience (Cat #50294) containing Hsp90 recombinant enzyme, FITC-labeled geldanamycin, assay buffer and a low binding 384-well plate was used to assay Hsp90^α binding. Dithiothreitol (DTT) (Cat # D0643) and bovine serum albumin (BSA) (Cat # A2153) were obtained from Sigma-Aldrich. Fluorescence polarization was measured using a PHERAstar microplate reader (BMG LABTECH GmbH, Orienberg, Germany.)
The compounds were diluted to 1 mM in DMSO and loaded into a compound dilution plate to make 3-fold dilutions yielding a total of 8 concentrations. […] 5 mL of Hsp90^□ binding solution was prepared having a final concentration of 7 ng/[…]binding^□, 5 nM FITC-labeled geldanamycin, 2 mM DTT and 0.1 mg/mL BSA. 49 μL of binding solution was added to each microplate well, incubated at room temperature for 1 hour, then read using the PHERAstar microplate reader. The high control sample contained no compound plus Hsp90^α; the low control sample contained no compound and no Hsp90^α. […] The IC50 was calculated using GraphPad Prism 4 software.

[2] = test system: human breast cancer cell line BT-474; assay: Cytotoxicity assay (CellTiter-Glo, 72 h), BT-474; format: cell-based; details: BT-474, 72 hours, read-out: Cytotoxicity (IC50, nM) BT-474
Procedure: (§2) Cytotoxicity of SDC-TRAP molecules was determined in three cancer cell lines. […] 80 μL of CellTiter-Glo was added to each well, followed by room temperature incubation in the dark for 15 minutes. Cell was determined by luminescence. IC50 was calculated using XLfit™ software.

[3] = test system: human urinary bladder cancer cell line RT-112; assay: Cytotoxicity assay (CellTiter-Glo, 72 h), RT-112; format: cell-based; details: RT-112, 72 hours, read-out: Cytotoxicity (IC50, nM) RT-112
Procedure: as §2

[4] = test system: human urinary bladder cancer cell line SW780; assay: Cytotoxicity assay (CellTiter-Glo, 72 h), SW780; format: cell-based; details: SW780, 72 hours, read-out: Cytotoxicity (IC50, nM) SW-780
Procedure: as §2

[5] = Artificial membrane permeability assay (PAMPA); details: same protocol, second table
Human H3122 NSCLC cells = assay: Cell viability assay (CellTiter-Glo) in H3122 cells (Example 4); format: cell-based; details: NCI-H3122
Procedure: Human H3122 NSCLC cells were obtained and grown in RPMI in the presence of fetal bovine serum (10%), 2 mM L-glutamine and antibiotics (100 IU/ml penicillin and 100 μg/ml streptomycin, Sigma Aldrich.) Cells were maintained at 37° C., 5% CO2 atmosphere.
Cell viability was measured using the CellTiter-Glo® assay (Promega). In brief, cells were plated in 96-well plates in triplicate at optimal seeding density (determined empirically) and incubated at 37° C., 5% CO2 atmosphere for 24 hr prior to the addition of drug or vehicle (0.3% DMSO) to the culture medium. At the end of the assay, CellTiter-Glo was added to the wells per manufacturer's recommendation, shaken for two minutes and incubated for 10 minutes at room temperature. Luminescence (0.1 sec) was measured with a Victor II microplate reader (Perkin Elmer) and the resulting data were used to calculate cell viability, normalized to vehicle control.
Cells as described above were treated with exemplary SDC-TRAPs and their viability determined as above as well. The following table illustrates the results.

[6] = Stability in human plasma, 2 h at 37° C. (Example 5); format: in vitro ADME
Procedure: (§1) SDC-TRAP-0022 and SDC-TRAP-0028 were incubated in human and mouse plasma for 2 h at 37° C. and assayed for integrity at 0.25, 0.5, 1 and 2 h. The values reported below are the remaining of the parent compound at the end of the 2 h incubation period.

[7] = Stability in mouse plasma, 2 h at 37° C. (Example 5); format: in vitro ADME
Procedure: as §1

[8] = mouse, plasma, 1 h, 10 µM
Procedure: (§3) 150 ng/mL solution of SDC-TRAP-0002 in methanol was prepared using the internal standard spiking solution. This solution was used to precipitate all plasma samples in the study. 200 μL was pipetted into a 96 deepwell plate over dry ice. 10 μL of 1 mM stock in DMSO was added to a 1.5 mL microfuge tube, then 990 μL of plasma. Samples were mixed by vortex, then 50 μL of each sample was added in triplicate to a 96-well plate containing internal standard solution. This was designated the 0 hour time point sample. 250 μL of the remaining plasma sample was added to each of four 96 deepwell plates—one per time point. Samples were incubated at 37° C. with gentle shaking for 0.25, 0.5, and 1 hour. After each time point, one plate of each sample was removed from the shaker and placed on wet ice for approximately 2 minutes. 50 μL at plasma aliquots (in triplicate) were added to the deepwell plate containing internal standard solution. After the last time point was extracted, the 96 deepwell plate was vortexed, then centrifuged at 2-8° C. 150 μL of supernatant was collected and 25 μL at of water was added. Samples were mixed and analyzed by LC-MS/MS.
(§4) 990 μL mouse plasma aliquots from a common stock were spiked with 10 μL of 1 mM stock of one of seven SDC-TRAP samples identified in the table below. Each sample was mixed and divided into 250 μL aliquots, each representing time points 0, 15 minutes, 30 minutes or 1 hour. At the prescribed time point, 3×50 μL samples were each mixed with 200 μL of methanol containing internal standard and held on dry ice until all time point samples were extracted. The samples collectively were vortex mixed for 1.5 minutes at 1500 rpm, then centrifuged at 4400 rpm for 10 minutes at 8° C.

HER2 [9] = assay: HER2 degradation in BT-474 cells (Example 3, Methods 1 and 2); format: cell-based, human
Summary of the method: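 BT-474 cells treated 24 h at 37 °C with 10-point 3-fold compound dilutions; HER2 read by in-cell immunofluorescence after paraformaldehyde fixation, signal normalized to DRAQ5 nuclear stain, EC50 from curve fit. Degradation also checked by western blot of cytosolic lysates against tubulin.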

H 3211 NSLC cells = assay: IC50 of continuous and pulsed exposure (Examples 9 and 10); format: cell-based
[10] = Mouse plasma stability protocol, up to 1 h (Examples 16-18)
Procedure: as §3, §4

[11] = test system: human SCLC tumor xenografts; assay: Antitumor activity in human SCLC tumor xenografts; format: in vivo, mice; details: SCLC xenografts; day 46
[12] = test system: H2AX phosphorylation, HSP70, EGFR, MET; assay: Pharmacodynamics in CRC (HCT-116) xenograft tumors; format: in vivo, mouse; details: for H2AX phosphorylation: 24 hr
[13] = test system: Hsp90 client proteins (EGFR, MET, CDC2), Hsp70, DNA damage markers; assay: Pharmacodynamics in SCLC xenograft tumors; format: in vivo
SK-OV-3 xenografts = assay: Antitumor activity in SK-OV-3 ovarian cancer xenografts; format: in vivo, female Balb/c nude mice; details: SDC-TRAP-0063 200 mg/kg group; irinotecan alone and with ganetespib
Procedure: This model is sensitive to HSP90 inhibition.
However, once the dosing is discontinued all but 200 mg/kg of SDC-TRAP-0063 dose group maintained tumor growth inhibition for a prolonged period of time.

[14] = test system: HCT-116 human colorectal xenografts; details: female, BALB/cA nude, mouse, in vivo, iv
Procedure: (§5) The cells were maintained in vitro as a monolayer culture in McCoy's 5a Medium. Fetal bovine serum was then be added to the medium. The final concentration of fetal bovine serum was 10%. Cells were cultured at 37° C. and 5% CO2. The tumor cells were routinely sub-cultured twice weekly by trypsin-EDTA treatment. Cells in an exponential growth phase were harvested and counted for tumor inoculation.
(§6) 100 18-22 g, 5-7 week old, female BALB/cA nude mice were inoculated with the HCT 116 cells (2.0×10^6, 1:1 with Matrigel) subcutaneously on the back of each animal (0.1 mL/mouse). When the average tumor volume reached about 150-250 mm^3, 60 of the inoculated mice was selected based on tumor growth and randomly grouped into 6 treatment groups (10 mice per group) according to the following table.
(§7) The administrations were made with 27-gauge IV needle.
(§8) During the treatment period, the implanted tumors were measured by caliper twice per week. The tumors were measured for the maximum width (X) and length (Y) and the tumor volumes (V) were calculated using the formula: V=(X^2Y)/2. The differences in the tumor volume between the control and treatment groups were analyzed for significance using the unpaired two-tailed Student's t-test. P<0.05 was considered to be statistically significant. The animal body weights were also weighed and recorded twice per week.

[15] = test system: HCT-116 human colorectal xenografts; assay: Mouse xenograft efficacy in HCT-116 colon cancer model; details: mouse, in vivo
Procedure: as §5, §6, §7, §8

[16] = Tissue distribution of ganetespib in mice bearing RERF human NSCLC xenografts; details: ganetespib 50 mg/kg IV
Description: Tissue distribution of ganetespib in female CD-1 nu/nu mice bearing RERF human NSCLC xenografts

[17] = SCLC xenograft tumors, 24 hrs after drug exposure

## CCNC(=O)c1nnc(-c2cc(C(C)C)c(O)cc2O)n1-c1ccc(Oc2ccc(C(=O)N[C@H]3C[C@H](O[C@H]4C[C@](O)(C(=O)CO)Cc5c(O)c6c(c(O)c54)C(=O)c4c(OC)cccc4C6=O)O[C@@H](C)[C@H]3O)cc2)cc1 [SDC-TRAP-0199, 5-(2,4-dihydroxy-5-isopropylphenyl)-N-ethyl-4-(4-(4-(((2S,3 S,4S,6R)-3-hydroxy-2-methyl-6-(((1S,3S)-3,5,12-trihydroxy-3-(2-hydroxyacetyl)-10-methoxy-6,11-dioxo-1,2,3,4,6,11-hexahydrotetracen-1-yl)oxy)tetrahydro-2H-pyran-4-yl)carbamoyl)phenoxy)phenyl)-4H-1,2,4-triazole-3-carboxamide]
HER2 [1]; BT-474 cells, overnight
  IC50: > 10000 nM
Hsp90α
  EC50: 136 nM
[2]
  IC50: 29 nM
[3]
  IC50: 29 nM
[4]
  IC50: 2300 nM

## CCNC(=O)c1nnc(-c2cc(C(C)C)c(O)cc2O)n1-c1ccc(OC2CCN(c3cnc(C(=O)N[C@H]4C[C@H](O[C@H]5C[C@](O)(C(=O)CO)Cc6c(O)c7c(c(O)c65)C(=O)c5c(OC)cccc5C7=O)O[C@@H](C)[C@H]4O)cn3)CC2)cc1 [SDC-TRAP-0200, 5-(4-(4-(3-(2,4-dihydroxy-5-isopropylphenyl)-5-(ethylcarbamoyl)-4H-1,2,4-triazol-4-yl)phenoxy)piperidin-1-yl)-N-((2S,3S,4S,6R)-3-hydroxy-2-methyl-6-(((1S,3S)-3,5,12-trihydroxy-3-(2-hydroxyacetyl)-10-methoxy-6,11-dioxo-1,2,3,4,6,11-hexahydrotetracen-1-yl)oxy)tetrahydro-2H-pyran-4-yl)pyrazine-2-carboxamide]
HER2 [1]; BT-474 cells, overnight
  IC50: > 10000 nM
Hsp90α
  EC50: 253 nM
[2]
  IC50: 32 nM
[3]
  IC50: 16 nM
[4]
  IC50: 651 nM
[5]
  Mass Retention: 10.6%

## CCc1c2c(nc3ccc(OCC(=O)N(C)CCOCCn4ccc5cc(-n6c(O)nnc6-c6cc(C(C)C)c(O)cc6O)ccc54)cc13)-c1cc3c(c(=O)n1C2)COC(=O)C3(O)CC (stereo not drawn) [SDC-TRAP-0028, 2-((4,11-diethyl-4-hydroxy-3,14-dioxo-3,4,12,14-tetrahydro-1H-pyrano[3′,4′: 6,7]indolizino[1,2-b]quinolin-9-yl)oxy)-N-(2-(2-(5-(3-(2,4-dihydroxy-5-isopropylphenyl)-5-hydroxy-4H-1,2,4-triazol-4-yl)-1H-indol-1-yl)ethoxy)ethyl)-N-methylacetamide]
Human H3122 NSCLC cells
  IC50: 909 nM
[6]; human, plasma, 2 h, 1 μM
  % Remaining 2 h (37° C.), HU: 51%
[6]; human, plasma, 2 h, 10 μM
  % Remaining 2 h (37° C.), HU: 65%
[7]; mouse, plasma, 2 h, 1 μM
  % Remaining 2 h (37° C.), MO: 53%
[7]; mouse, plasma, 2 h, 10 μM
  % Remaining 2 h (37° C.), MO: 47%
[8]
  % Remaining (1 h): 40.9%
  % Remaining (1 h, 37° C.): 41%

## CCc1c2c(nc3ccc(OC(=O)N(C)CCn4ccc5cc(-n6c(O)nnc6-c6cc(C(C)C)c(O)cc6O)ccc54)cc13)-c1cc3c(c(=O)n1C2)COC(=O)C3(O)CC (stereo not drawn) [SDC-TRAP-0022, 4,11-diethyl-4-hydroxy-3,14-dioxo-3,4,12,14-tetrahydro-1H-pyrano[3′,4′:6,7]indolizino[1,2-b]quinolin-9-yl (2-(5-(3-(2,4-dihydroxy-5-isopropylphenyl)-5-hydroxy-4H-1,2,4-triazol-4-yl)-1H-indol-1-yl)ethyl)(methyl)carbamate]
HER2 [9]
  IC50: > 5000 nM
HER2 [1]
  IC50: > 5000 nM
Human H3122 NSCLC cells
  IC50: 492 nM
[6]; human plasma, 1 μM
  % Remaining 2 h (37° C.), HU: 29%
[6]; human plasma, 10 μM
  % Remaining 2 h (37° C.), HU: 30%
[7]; mouse plasma, 1 μM
  % Remaining 2 h (37° C.), MO: 32%
[7]; mouse plasma, 10 μM
  % Remaining 2 h (37° C.), MO: 31%
H 3211 NSLC cells; 1 h, read-out: IC50, 1h-pulse/71h-compound free, 7.5 × 10^3 cells/well, two replicate columns
  IC50: > 3000 nM
H 3211 NSLC cells; read-out: IC50, 1h-pulse/71h-compound free, 7.5 × 10^3 cells/well, two replicate columns
  IC50: > 3000 nM
H 3211 NSLC cells; read-out: IC50, 72h-continuous, 7.5 × 10^3 cells/well, three replicate columns
  IC50: 193 nM and 823 nM and 460 nM
[10]; % Remaining of parent after 1 h incubation in mouse plasma at 37° C. (10 μM)
  % Remaining (1 h): 21.0%
[10]; mouse plasma, 1 h, 37° C.
  % Remaining (1 h, 37° C.): 21%

## CCc1c2c(nc3ccc(OC(=O)N4CCC(N5CCCCC5)CC4)cc13)-c1cc3c(c(=O)n1C2)COC(=O)[C@]3(O)CC [irinotecan, reference compound]
[11]
  mice found dead: 1/8
[12]; HCT-116 tumors
  H2AX phosphorylation: stimulate H2AX phosphorylation at 24 hr
[12]; HCT-116 xenograft tumors
  kinetics of H2AX phosphorylation: maximally induced at 4 hr and stable at 24 hr
[13]; SCLC xenograft tumors, 24, 72 and 96 hrs
  kinetics of acetyl-histone H3 induction: maximal induction of acetyl-histone H3 by 24 hr
SK-OV-3 xenografts
  antitumor activity in SK-OV-3 xenografts (FIG. 25): statistically significant inhibitory impact on the growth of SK-OV-3 xenografts
[8]
  % Remaining (1 h): 32.5%
[14]
  animal death during the treatment: 20-30%
[15]
  antitumor activity in HCT-116 xenografts (FIG. 23): significantly inhibited the growth of HCT-116 human colorectal xenografts

## CC(C)c1cc(-c2n[nH]c(=O)n2-c2ccc3c(ccn3C)c2)c(O)cc1O [ganetespib, reference compound]
[12]; HCT-116 tumors
  H2AX phosphorylation: induces H2AX phosphorylation
[12]; HCT-116 tumors, 24 hr exposure
  HSP70 and Hsp90 client protein (EGFR, MET) expression: induces HSP70 expression and reduces the level of EGFR and MET compared to vehicle
[13]; [17]
  Hsp90 client proteins (EGFR, MET, CDC2) and Hsp70 expression: Hsp90 clients EGFR, MET and CDC2 are diminished
  markers for DNA damage (acetyl-histone H3, p53, p-H2AX): increases p-H2AX but has negligible effects on p53 and histone H3
[16]; DRD, 24 hr
  plasma concentration: <LLOQ
[16]; 5 min
  mean concentration in plasma relative to RBC: about 10 times
[16]; up to 24 hr
  persistence in tumor versus plasma and other tissues: persist longer in tumor than in plasma or any other tissues studied
